{
  "source": "patent US11766470B2",
  "about": "“Manufacture, formulation and dosing of apraglutide” (VectivBio AG, priority 2020, dated 2023)",
  "origin": "cited, not measured here",
  "key": {"[1]": {"conditions": "dosed once daily; cited from earlier work"}, "[2]": {"conditions": "cited from earlier work"}, "[3]": {"conditions": "cited from earlier work", "remark": "listed apart in the source"}},
  "note": "Like-named read-outs stand apart in the source and are kept apart here.",
  "data": [
    {"molecule": "CC[C@H](C)[C@H](NC(=O)[C@H](Cc1ccccc1)NC(=O)[C@H](CC(=O)O)NC(=O)[C@H](CCCNC(=N)N)NC(=O)[C@H](C)NC(=O)[C@H](C)NC(=O)[C@H](CC(C)C)NC(=O)[C@H](CC(N)=O)NC(=O)[C@H](CC(=O)O)NC(=O)[C@H](CC(C)C)NC(=O)[C@@H](NC(=O)[C@@H](NC(=O)[C@H](CC(N)=O)NC(=O)[C@H](CCSC)NC(=O)[C@H](CCC(=O)O)NC(=O)[C@H](CC(=O)O)NC(=O)[C@H](CO)NC(=O)[C@H](Cc1ccccc1)NC(=O)[C@H](CO)NC(=O)CNC(=O)[C@H](CC(=O)O)NC(=O)CNC(=O)[C@@H](N)Cc1c[nH]cn1)[C@@H](C)O)[C@@H](C)CC)C(=O)N[C@@H](CC(N)=O)C(=O)N[C@@H](Cc1c[nH]c2ccccc12)C(=O)N[C@@H](CC(C)C)C(=O)N[C@H](C(=O)N[C@@H](CCC(N)=O)C(=O)N[C@H](C(=O)N[C@@H](CCCCN)C(=O)N[C@H](C(=O)N[C@H](C(=O)N[C@@H](CC(=O)O)C(=O)O)[C@@H](C)O)[C@@H](C)CC)[C@@H](C)O)[C@@H](C)CC", "note": "[teduglutide]", "values": [
      {"measurement": "Change from baseline increase in urinary input", "setting": "[1]", "result": 139.3, "unit": "%"},
      {"measurement": "Change in baseline in energy absorption", "setting": "[1]", "result": 792, "unit": "kJ/day"},
      {"measurement": "Change in baseline in wet weight absorption", "setting": "[1]", "result": 743, "unit": "g/day"}
    ]},
    {"molecule": "Glucagon-like peptide 2 [GLP-2, reference compound]", "values": [
      {"measurement": "Half-life t½", "setting": "[2]", "result": 10, "unit": "min"}
    ]},
    {"molecule": "glepaglutide", "values": [
      {"measurement": "Change from baseline increase in urinary output", "setting": "[3]; 0.1 mg dose once daily", "result": 111, "unit": "%"},
      {"measurement": "Change in baseline in energy absorption", "setting": "[3]; 0.1 mg dose once daily", "result": -377, "unit": "kJ/day"},
      {"measurement": "Change in baseline in wet weight absorption", "setting": "[3]; 0.1 mg dose once daily", "result": -211, "unit": "g/day"},
      {"measurement": "Change from baseline increase in urinary output", "setting": "[3]; 1.0 mg dose once daily", "result": 140, "unit": "%"},
      {"measurement": "Change in baseline in energy absorption", "setting": "[3]; 1.0 mg dose once daily", "result": 435, "unit": "kJ/day"},
      {"measurement": "Change in baseline in wet weight absorption", "setting": "[3]; 1.0 mg dose once daily", "result": 650, "unit": "g/day"},
      {"measurement": "Change from baseline increase in urinary output", "setting": "[3]; 10 mg dose once daily", "result": 132, "unit": "%"},
      {"measurement": "Change in baseline in energy absorption", "setting": "[3]; 10 mg dose once daily", "result": 588, "unit": "kJ/day"},
      {"measurement": "Change in baseline in wet weight absorption", "setting": "[3]; 10 mg dose once daily", "result": 786, "unit": "g/day"}
    ]}
  ]
}
